How the values were obtained:
[1] = test system: ΔAdPol.adenovirus encoding either tTA or RFP; assay: tTA-induced resistance to antibiotic inhibition of adenoviral replication; format: cell-based, Adenovirus type 5; conditions: treatment 10 h post-infection
Experimental: FIGS. 48A-48D. tTA-induced resistance to antibiotic mediated inhibition of adenoviral infection. Either wild-type AdPol cells, TRE3G.puroR cells, or TRE3G.blastR cells were infected with ΔAdPol.adenovirus encoding either tTA (+tTA) or RFP (−tTA). Ten hours post-infection, wild-type AdPol cells were treated with either puromycin (FIG. 48A) or (FIG. 48B) blasticidin, TRE3G.puroR cells were treated with puromycin (FIG. 48C), and TRE3G.blastR cells were treated with blasticidin (FIG. 48D). After 2, days, the infections were harvested and titered by flow cytometry. Titers are given in infectious units per milliliter (IU/mL), defined as the volume of adenoviral supernatant required to induce fluorescence in a cell as analyzed by flow cytometry. Dashed line represents the limit of detection (L.O.D) of the assay. Titers below this limit are inaccurate owing to the percentage of infected cells being below the 1% error threshold of flow cytometry.
Either RFP.ΔAdPol.adenovirus, or tTA.mCherry.ΔAdPol.adenovirus (TABLE 16) was used to infect a 24-well plate of either wild-type AdPol cells, TRE3G.puroR cells, or TRE3G.blastR cells (150,000 cells/well) (TABLE 17) at MOI=1, and either puromycin or blasticidin was added 10 h post-infection. Viral supernatants were harvested ˜48 h post-infection, and titered by flow cytometry as described above.

[2] = test system: 1:10 mixture of tTA.mCherry.ΔAdPol.adenovirus and CFP.GFP.ΔAdPol.adenovirus; assay: Enrichment of tTA-expressing adenovirus by blasticidin selection in TRE3G.blastR cells; format: cell-based, Adenovirus type 5; conditions: 20 μM blasticidin, added 10 h post-infection
Experimental: FIG. 49. Enrichment of adenoviruses encoding positive BOI variants by antibiotic selection. TRE3G.blastR cells were infected with a 1:10 mixture of ΔAdPol.adenovirus encoding either tTA (+tTA) or CFP (−tTA) and treated with blasticidin 10 h post-infection. Two days post-infection, adenoviruses were harvested and titered by flow cytometry. Titers are given in infectious units per milliliter (IU/mL), defined as the volume of adenoviral supernatant required to induce fluorescence in a cell as analyzed by flow cytometry. Dashed line represents the limit of detection (L.O.D) of the assay. Titers below this limit are inaccurate due to the percentage of infected cells being below the 1% error threshold of flow cytometry.
A 1:10 mixture of tTA.mCherry.ΔAdPol.adenovirus and CFP.GFP.ΔAdPol.adenovirus (TABLE 16) was used to infect a 24-well plate of TRE3G.blastR cells (150,000 cells/well) (TABLE 17) at MOI=0.7, and blasticidin was added 10 h post-infection. Viral supernatants were harvested ˜48 h post-infection, and titered by flow cytometry as described above.

HEK293A cells = assay: Resazurin assay to assess acute toxicity of common tissue culture antibiotics; format: cell-based, human; conditions: two-day treatment
Experimental: FIGS. 46A-46D. Resazurin assay to assess acute toxicity of common tissue culture antibiotics. HEK293A cells were treated for two days with either G418 (FIG. 46A), puromycin (FIG. 46B), blasticidin (FIG. 46C), or hygromycin (FIG. 46D), and cell viability was analyzed by resazurin fluorescence.
A 96-well plate was seeded with HEK293A cells (˜15,000) and treated with either puromycin HCl (Corning), Hygromycin B (Thermo Fisher), Blasticidin S HCl (Thermo Fisher), or G418 (Enzo). Two days later, 10 μL of 0.1 mg/mL resazurin (MilliporeSigma) was added and incubated for 1.5 h. Media was transferred to a fresh 96-well plate and fluorescence was analyzed on a Bio-Tek Synergy H1 Hybrid Microplate Reader.

RFP.ΔAdPol.adenovirus = assay: Time course of antibiotic inhibition of adenoviral replication; format: cell-based, Adenovirus type 5; conditions: treatment initiated 24 h post-infection
Text: FIGS. 47A-47B. Time-course of antibiotic-mediated inhibition of adenoviral infection. HEK293A cells expressing wild-type AdPol were infected with RFP.ΔAdPol.adenovirus and treated with either a) puromycin, or b) blasticidin at various time points post-infection (h.p.i.=hours post-infection). After 2 days, the infections were harvested and titered by flow cytometry. Titers are given in infectious units per milliliter (IU/mL), defined as the volume of adenoviral supernatant required to induce fluorescence in a cell as analyzed by flow cytometry. Dashed line represents the limit of detection (L.O.D) of the assay. Titers below this limit are inaccurate due to the percentage of infected cells being below the 1% error threshold of flow cytometry.
RFP.ΔAdPol.adenovirus (TABLE 16) was used to infect a 24-well plate of wild-type AdPol cells (150,000 cells/well) (TABLE 17) at MOI=1, and either blasticidin or puromycin was added at various time points following the infection. Viral supernatants were harvested ˜48 h post-infection, and titered by flow cytometry as described above.

tTAwt.mCherry adenovirus [3] = format: cell-based, Adenovirus type 5
Experimental: FIGS. 21A-21C. FIG. 21A. […] HEK293A cells stably encoding the gene for adenoviral protease (AdProt) under control of the endogenous tTA operator are infected by an initial ratio of 1:100 or 1:1,000 tTAwt.mCherry to tTAmut.GFP viruses. Viral media was serially passaged onto a new plate of cells for three rounds. The viral populations were then determined via flow cytometry. FIG. 21B. Quantification of flow cytometry data from the competition experiment. […] The initial ratio of the 1:1,000 sample (labeled N.D.; not detectable) was not experimentally quantifiable owing to the low amount of tTAwt.mCherry adenovirus present, and was therefore derived by dilution of the 1:100 initial ratio. For raw flow cytometry data, see FIG. 26 and FIG. 27. FIG. 21C. […]
Adenoviral titers were determined through flow cytometry. […] 2-3 days post-infection, cells were washed once with media, stained with 0.2 μg/mL DAPI, and then analyzed on a BD LSR II Analyzer for fluorescent protein expression. Infectious titers were determined by measuring the percentage of cells infected by a known volume of virus. To minimize counting cells that were infected by more than one virus and to minimize any background fluorescence, data were only considered if they fell within the linear range, which typically encompassed samples where 1-10% of cells were infected. […]

tTAwt.mCherry adenovirus [4] = assay: Doxycycline dose response of tTAwt.mCherry adenovirus titer in TRE3G.AdProt cells; format: cell-based, Adenovirus type 5; conditions: synchronous infection, various dox concentrations
Experimental: FIG. 36. Dose response of tTA-mCherry titer when treated with doxycycline. […] Titer is given in “infectious units per mL” (IU/mL), which is defined as the number of viruses per mL that are able to elicit a fluorescent signal in cells when analyzed by flow cytometry.
A semi-confluent dish of TRE3G.AdProt cells (˜160,000 cells) (TABLE 13) was infected with tTAwt. mCherry adenovirus (multiplicity of infection ˜2.5) (TABLE 12). After 3 h, the cells were washed twice, and fresh tet-approved media (Takara Bio) supplemented with various concentrations of dox was added. 5 days later, the virus lysates were harvested and viral titers were analyzed by flow cytometry.

[5] = test system: AdGLΔPol adenoviral genome; conditions: high fidelity deep sequencing by Sanjuán and co-workers (Risso-Ballester et al. 2016); cited from earlier work

## CN(CC[C@H](N)CC(=O)N[C@H]1C=C[C@H](n2ccc(N)nc2=O)O[C@@H]1C(=O)O)C(=N)N [blasticidin]
[1]; TRE3G.blastR cell line
  effect on RFP.ΔAdPol.adenovirus: still inhibited
  effect on tTA.ΔAdPol.adenovirus: completely resistant to blasticidin treatment
[1]; wild-type AdPol cell line
  effect on ΔAdPol.adenovirus replication: inhibited both RFP-expressing and tTA-expressing ΔAdPol.adenovirus replication
[2]
  drop of CFP.ΔAdPol.adenovirus titer: over 100 fold
  tTA.mCherry.ΔAdPol.adenovirus titer: remained steady
HEK293A cells
  dynamic range of inhibitory concentrations: over two orders of magnitude
HEK293A cells; various concentrations
  acute toxicity (cell viability by resazurin fluorescence): completely toxic
RFP.ΔAdPol.adenovirus
  inhibition of adenoviral replication: Neither puromycin nor blasticidin were able to inhibit adenoviral replication

## C[C@H]1c2cccc(O)c2C(=O)C2=C(O)[C@]3(O)C(=O)C(C(N)=O)=C(O)[C@@H](N(C)C)[C@@H]3[C@@H](O)[C@@H]21 [dox, doxycycline]
tTAwt.mCherry adenovirus [3]
  decrease in viral titer: ~10 fold
tTAwt.mCherry adenovirus [4]
  modulation of adenoviral titers: ~10 fold

B1: AdPol: high fidelity wild-type adenovirus type-5 DNA polymerase (protein, UniProt P04495 1-1198, looked up)
DNA polymerase: MALVQAHRARRLHAEAPDSGDQPPRRRVRQQPTRAAPAPARARRRRAPAPSPGGSGAPPTSGGSPASPLLDASSKDTPAAHRPPRGTVVAPRGCGLLQAIDAATNQPLEIRYHLDLARALTRLCEVNLQELPPDLTPRELQTMDSSHLRDVVIKLRPPRADIWTLGSRGVVVRSTVTPLEQPDGQGQAAEVEDHQPNPPGEGLKFPLCFLVRGRQVNLVQDVQPVHRCQYCARFYKSQHECSARRRDFYFHHINSHSSNWWREIQFFPIGSHPRTERLFVTYDVETYTWMGAFGKQLVPFMLVMKFGGDEPLVTAARDLAANLGWDRWEQDPLTFYCITPEKMAIGRQFRTFRDHLQMLMARDLWSSFVASNPHLADWALSEHGLSSPEELTYEELKKLPSIKGIPRFLELYIVGHNINGFDEIVLAAQVINNRSEVPGPFRITRNFMPRAGKILFNDVTFALPNPRSKKRTDFLLWEQGGCDDTDFKYQYLKVMVRDTFALTHTSLRKAAQAYALPVEKGCCAYQAVNQFYMLGSYRSEADGFPIQEYWKDREEFVLNRELWKKKGQDKYDIIKETLDYCALDVQVTAELVNKLRDSYASFVRDAVGLTDASFNVFQRPTISSNSHAIFRQIVFRAEQPARSNLGPDLLAPSHELYDYVRASIRGGRCYPTYLGILREPLYVYDICGMYASALTHPMPWGPPLNPYERALAARAWQQALDLQGCKIDYFDARLLPGVFTVDADPPDETQLDPLPPFCSRKGGRLCWTNERLRGEVATSVDLVTLHNRGWRVHLVPDERTTVFPEWRCVAREYVQLNIAAKERADRDKNQTLRSIAKLLSNALYGSFATKLDNKKIVFSDQMDAATLKGITAGQVNIKSSSFLETDNLSAEVMPAFQREYSPQQLALADSDAEESEDERAPTPFYSPPSGTPGHVAYTYKPITFLDAEEGDMCLHTLERVDPLVDNDRYPSHLASFVLAWTRAFVSEWSEFLYEEDRGTPLEDRPLKSVYGDTDSLFVTERGHRLMETRGKKRIKKHGGNLVFDPERPELTWLVECETVCGACGADAYSPESVFLAPKLYALKSLHCPSCGASSKGKLRAKGHAAEGLDYDTMVKCYLADAQGEDRQRFSTSRTSLKRTLASAQPGAHPFTVTQTTLTRTLRPWKDMTLARLDEHRLLPYSESRPNPRNEEICWIEMP
[5]
  estimated mutation rate: ~1.3×10^−7 mutations per base per viral passage

From patent publication US11414677B2, “Methods and compositions for performing continuous directed evolution” (Massachusetts Institute of Technology, priority 2017, dated 2022)
